Reference: patent US10059669B2, “2-amino-3,5-difluoro-3,6-dimethyl-6-phenyl-3,4,5,6-tetrahydropyridines as BACE1 inhibitors for treating alzheimer's disease” (H. Lundbeck A/S, priority 2014, dated 2018)
Like-named read-outs stand apart in the source and are kept apart here.

Assays:
BACE1 = BACE1 (Homo sapiens (Human), UniProt P56817); assay: BACE1 binding assay (SPA-based radioligand binding); settings: pH 4.5, 10 nM radioligand, Ki calculated from IC50
Protocol: The binding assay was performed as SPA-based assay using a biotinylated form of human BACE1 recombinantly expressed and subsequently purified from Freestyle HEK293 cells. The binding assay was run in a 50 mM sodium acetate buffer, pH 4.5 containing 50 mM NaCl and 0.03% Tween-20 in white clear bottom 384 plates (Corning #3653). 10 nM (final concentration) radioligand ([^3H]—N-((1S,2R)-1-benzyl-3-cyclopropylamino-2-hydroxy-propyl)-5-(methanesulfonyl-methyl-amino)-N—((R)-1-phenyl-ethyl)-isophthalamide) (TRQ11569 purchased from GE Healthcare) was mixed with test compound at a given concentration, 6 nM (final concentration) human BACE1 and 25 μg Streptavidin coated PVT core SPA beads (RPNQ0007, GE Healthcare Life Sciences) in a total volume of 40 μl. Several concentrations of each test compound were tested in the assay for IC50 determination. The plates were incubated for one hour at room temperature and counted in a Wallac Trilux counter. Total and non-specific binding were determined using buffer and 1 μM (final concentration) of the high affinity BACE1 reference inhibitor (S)-6-[3-chloro-5-(5-prop-1-ynyl-pyridin-3-yl)-thiophen-2-yl]-2-imino-3,6-dimethyl-tetrahydro-pyrimidin-4-one, respectively. For each test compound, a IC50 value (the concentration mediating 50% inhibition of the specific binding of the radioligand) was determined from concentration-response curve and used to calculate the Ki from the equation Ki=IC50/(1+L/Kd), where L and Kd are the final concentration of the radioligand used in the assay and the dissociation constant of the radioligand, respectively. The Kd of the radioligand was determined from saturation binding experiments.

[1] = Bioanalysis of brain and plasma samples (exposure, UPLC-MS/MS); assay type: in vivo, rat; settings: male, Sprague Dawley, po, 3 hours post dose; for Kp at 3 h: brain and plasma, Rat, read-out: Brain/Plasma ratio; for concentration at 3 h: read-out: Exp
Protocol: Young adult Male Sprague Dawley rats of approximately 250 g weight were purchased from Charles River and received 0-30 mg/kg of vehicle (10% HP betaCD+1M MeSO4, pH 2.5) or test compounds (dissolved in vehicle) only by oral gavage (p.o). The compounds are dosed at a volume of 5 ml/kg. Cohorts of 5-10 animals were established for each treatment condition.
At T=180 minutes after initial dosing the animals were stunned and decapitated with a guillotine. Trunk-blood was sampled in EDTA coated tubes after decapitation of the animal. The blood was centrifuged at 2200G at 4° C. for 15 minutes and the plasma was collected and frozen at −80° C. The blood was aliquoted for Aβ ELISA and DMPK analysis. Immediately following sacrifice, the brain was extracted and split into 2 halves. The right hemibrains were snap frozen on dry ice and stored at −80° C. The left half was dissected; with the front forebrain taken for Aβ ELISA and the remainder used for DMPK analysis. These samples were also snap frozen on dry ice and stored at −80° C. until use for analysis. […]
TC was determined in plasma and brain homogenate using UltraPerformance LC® (UPLC®) chromatography followed by tandem-MS (MS/MS) detection.
Brain homogenate was prepared by homogenizing the brain 1:4 (v/v) with water:2-propanol:DMSO (50:30:20 v/v/v) followed by centrifugation and collection of the supernatant. Calibration standards and QC samples were prepared using a Hamilton robot. 150 μL of ISTD in acetonitrile (1 ng/mL ISTD) was added to 25 μL of calibration standards, QC samples and test samples (plasma and brain homogenate) using a Biomek robot. After centrifugation (6200 g, 4° C., 20 min) 100 μL supernatant from each sample was transferred to a new plate and mixed with 100 μL water with 0.1% formic acid using a Biomek robot (method file InVivo transfer). After a quick centrifugation (6200 g, 4° C., 5 min) the samples were placed in the auto-sampler.
MS/MS detection was done with an Applied Biosystems Sciex API 4000 instrument in positive-ion electrospray ionisation mode. TC and ISTD were detected at a parent>daughter mass to charge ratio (m/z). Nitrogen was used for the nebulizer and collision gases. The peak area correlated linearly with the plasma and brain concentration of the analytes in the range of 1.00-1000 ng/mL plasma and 5.00-5000 ng/g brain (corrected for dilution). If the plasma/brain sample drug concentration was above 1000 ng/mL or 5000 ng/g, the sample was diluted appropriately in blank plasma/blank brain homogenate before analysis.

BACE1, sequence (P56817 46-501): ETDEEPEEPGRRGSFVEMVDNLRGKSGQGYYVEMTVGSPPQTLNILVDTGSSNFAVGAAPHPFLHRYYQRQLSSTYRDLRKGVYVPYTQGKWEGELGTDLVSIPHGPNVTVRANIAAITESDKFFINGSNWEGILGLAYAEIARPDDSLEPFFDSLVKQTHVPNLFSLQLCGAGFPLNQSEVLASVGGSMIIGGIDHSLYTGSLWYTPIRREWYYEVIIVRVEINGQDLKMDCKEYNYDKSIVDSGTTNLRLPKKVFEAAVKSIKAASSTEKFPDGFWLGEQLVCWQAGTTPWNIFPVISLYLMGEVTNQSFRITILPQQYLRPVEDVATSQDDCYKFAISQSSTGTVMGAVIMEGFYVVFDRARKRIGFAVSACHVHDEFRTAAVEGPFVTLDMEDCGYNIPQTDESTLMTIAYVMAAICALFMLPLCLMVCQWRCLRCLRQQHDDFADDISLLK

SMILES | Ki (BACE1) | Kp at 3 h ([1]; 10 mg/kg p.o.) | Kp at 3 h ([1]; 30 mg/kg p.o.) | concentration at 3 h ([1]; Brain Rat, 10 mg/kg p.o.) | concentration at 3 h ([1]; Brain Rat, 30 mg/kg p.o.) | concentration at 3 h ([1]; Plasma Rat, 10 mg/kg p.o.) | concentration at 3 h ([1]; Plasma Rat, 30 mg/kg p.o.) | Kp at 3 h ([1]; 3 mg/kg p.o.) | concentration at 3 h ([1]; Brain Rat, 3 mg/kg p.o.) | concentration at 3 h ([1]; Plasma Rat, 3 mg/kg p.o.)
[2H]C([2H])([2H])Oc1ccc(C(=O)Nc2ccc(F)c([C@@]3(C)N=C(N)[C@@](C)(F)C[C@@H]3F)c2)nc1 [Compound 19, N-(3-((2R,3S,5S)-6-amino-3,5-difluoro-2,5-dimethyl-2,3,4,5-tetrahydropyridin-2-yl)-4-fluorophenyl)-5-(methoxy-d3)picolinamide] | 20 nM | 2.2 | 2.3 | 1020 ng/g | 2770 ng/g | 473 ng/g | 1200 ng/g |  |  | 
[2H]C([2H])([2H])Oc1cnc(C(=O)Nc2ccc(F)c([C@@]3(C)N=C(N)[C@@](C)(F)C[C@@H]3F)c2)cn1 [Compound 20, N-(3-((2R,3S,5S)-6-amino-3,5-difluoro-2,5-dimethyl-2,3,4,5-tetrahydropyridin-2-yl)-4-fluorophenyl)-5-(methoxy-d3)pyrazine-2-carboxamide] | 21 nM |  |  |  |  |  |  | 2.2 | 610 ng/g | 272 ng/g
COc1ccc(C(=O)Nc2ccc(F)c([C@@]3(C)N=C(N)[C@@](C)(F)C[C@@H]3F)c2)nc1 [Compound 3, N-(3-((2R,3S,5S)-6-amino-3,5-difluoro-2,5-dimethyl-2,3,4,5-tetrahydropyridin-2-yl)-4-fluorophenyl)-5-methoxypicolinamide] | 23 nM | 1.4 | 0.83 | 671 ng/g | 1510 ng/g | 489 ng/g | 1830 ng/g |  |  | 
